In patent US20040157863A1, “Triazolopyrimidines” (priority 2001, published 2004):
Where two headings read alike, the source gives them in different places.

Tests used:
Podosphaera leucotricha = experiment: Podosphaera test (apple)/protective; settings: apple plants, protective spray, application rate 100 g/ha, evaluation 10 days after inoculation
Procedure: Podosphaera Test (Apple)/Protective
After the spray coating has dried on, the plants are inoculated with an aqueous spore suspension of the apple mildew pathogen Podosphaera leucotricha. The plants are then placed in the greenhouse at about 23° C. and a relative atmospheric humidity of about 70%.
Evaluation is carried out 10 days after the inoculation.

Venturia inaequalis = experiment: Venturia test (apple)/protective; settings: apple plants, protective spray, application rate 100 g/ha, evaluation 12 days after inoculation
Procedure: Venturia Test (Apple)/Protective
After the spray coating has dried on, the plants are inoculated with an aqueous conidia suspension of the apple scab pathogen Venturia inaequalis and then remain in an incubation cabin at about 20° C. and 100% relative atmospheric humidity for one day.
The plants are then placed in a greenhouse at about 21° C. and a relative atmospheric humidity of about 90%.
Evaluation is carried out 12 days after the inoculation.

## CSc1nc2nc(Cl)c(-c3c(F)cc(F)cc3F)c(N3CCC(C(F)(F)F)CC3)n2n1 [Example 1, 5-chloro-2-(methylsulphanyl)-7-[4-(trifluoromethyl)-1-piperidinyl]-6-(2,4,6-trifluorophenyl)-[1,2,4]triazolo[1,5-a]pyrimidine]
logP (HPLC)
  chromatographic logP: 4.1

## C[C@H](Nc1c(-c2c(F)cc(F)cc2F)c(Cl)nc2nc(S(C)(=O)=O)nn12)C(F)(F)F [Example 2a, 5-chloro-2-(methylsulphonyl)-N-[(1S)-2,2,2-trifluoro-1-methylethyl]-6-(2,4,6-tri-fluorophenyl)[1,2,4]triazolo[1,5-a]pyrimidin-7-amine]
logP (HPLC); HPLC
  chromatographic logP: 2.94

## C[C@H](Nc1c(-c2c(F)cc(F)cc2F)c(Cl)nc2nc([S+](C)[O-])nn12)C(F)(F)F (stereo partly drawn) [Example 2b, 5-chloro-2-(methylsulphinyl)-N-[(1S)-2,2,2-trifluoro-1-methylethyl]-6-(2,4,6-trifluorophenyl)[1,2,4]triazolo[1,5-a]pyrimidin-7-amine]
logP (HPLC); HPLC
  chromatographic logP: 2.5

## CSc1nc2nc(Cl)c(-c3c(F)cc(F)cc3F)c(Cl)n2n1 [Example 568, 5,7-dichloro-2-(methylsulphanyl)-6-(2,4,6-trifluorophenyl)-[1,2,4]triazolo[1,5-a]pyrimidine]
logP (HPLC)
  chromatographic logP: 3.43

## CSc1nc2nc(Cl)c(-c3c(Cl)cccc3Cl)c(Cl)n2n1 [Example 572]
logP (HPLC)
  chromatographic logP: 3.86

## CSc1nc2nc(O)c(-c3c(F)cc(F)cc3F)c(O)n2n1 [Example 585, 2-methylsulphanyl-6-(2,4,6-trifluoro-phenyl)-[1,2,4]triazolo[1,5-a]pyrimidine-5,7-diol]
logP (HPLC)
  chromatographic logP: 0.47

## CS(=O)(=O)c1nc2nc(Cl)c(-c3c(Cl)cccc3Cl)c(NC3CCCC3)n2n1 [compound 6]
logP (HPLC); HPLC (gradient method)
  chromatographic logP: 3.35

## CSc1nc2nc(Cl)c(-c3c(Cl)cccc3Cl)c(N[C@@H](C)C(F)(F)F)n2n1 [compound 8]
logP (HPLC); HPLC (gradient method)
  chromatographic logP: 3.82

## CSc1nc2nc(Cl)c(-c3c(F)cc(F)cc3F)c(N[C@@H](C)C(F)(F)F)n2n1 [compound 9]
logP (HPLC); HPLC (gradient method)
  chromatographic logP: 3.58

## CSc1nc2nc(Cl)c(-c3c(Cl)cccc3Cl)c(N[C@@H](C)C(F)(F)F)n2n1 [drawing 57]
Podosphaera leucotricha
  Efficacy in %: 100%

## CSc1nc2nc(Cl)c(-c3c(F)cc(F)cc3F)c(N[C@@H](C)C(F)(F)F)n2n1 [drawing 58]
Podosphaera leucotricha
  Efficacy in %: 94%

## CSc1nc2nc(Cl)c(-c3c(Cl)cccc3Cl)c(N[C@@H](C)C(F)(F)F)n2n1 [drawing 60]
Venturia inaequalis
  Efficacy in %: 100%

## CSc1nc2nc(Cl)c(-c3c(F)cc(F)cc3F)c(N[C@@H](C)C(F)(F)F)n2n1 [drawing 61]
Venturia inaequalis
  Efficacy in %: 100%
